The subject of one test is Rattus norvegicus. In words: In vivo mean occlusion time for the antithrombic activity in rat arterial thrombosis model. Type of test: functional.
In test [1] the target is T1, Serine protease 1 (Homo sapiens, UniProt P07477). In words: In vitro inhibitory activity against trypsin.
The target in the next test is Prothrombin (Homo sapiens, UniProt P00734). In words: In vitro inhibitory activity against thrombin(FIIa).
The target of test [2] is T1, Serine protease 1. Description: In vitro inhibitory activity against trypsin at concentration 100 uM.

T1 sequence (P07477 whole entry): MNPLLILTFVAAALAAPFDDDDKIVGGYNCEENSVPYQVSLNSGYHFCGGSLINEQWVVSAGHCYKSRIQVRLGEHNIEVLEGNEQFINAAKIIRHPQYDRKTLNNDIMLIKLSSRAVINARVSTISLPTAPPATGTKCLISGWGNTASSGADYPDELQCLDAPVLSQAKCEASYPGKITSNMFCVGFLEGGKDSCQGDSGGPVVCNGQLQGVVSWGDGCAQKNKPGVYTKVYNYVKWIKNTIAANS

With `N[C@H]1CC[C@H]([C@H](NC(=O)[C@@H]2CC[C@H]3CN(C(=O)CCc4ccccc4)CC(=O)N32)C(=O)c2nccs2)CC1`, in the test with Rattus norvegicus, the MOT was 48 min. Moreover, the IC50 is 8990 nM against Serine protease 1 [1] and 33 nM at Prothrombin.
In the test on Rattus norvegicus, `N=C(N)c1cccc(C[C@H](NC(=O)[C@@H]2CC[C@H]3CN(C(=O)CCc4ccccc4)CC(=O)N32)C(=O)c2nccs2)c1` returned an MOT of 18 min. For the same compound, the half-inhibitory concentration (IC50) was determined as 7750 nM on Serine protease 1 [1] and 77 nM at Prothrombin.
As to `N=C(N)N1CCCC(C[C@@H](NC(=O)[C@@H]2CC[C@H]3CN(C(=O)CCc4ccccc4)CC(=O)N32)C(=O)c2nccs2)C1` (some centres undefined), the MOT in the test on Rattus norvegicus was determined as 27 min. The IC50 against Serine protease 1 [1] is 31600 nM; against Prothrombin, 137 nM.
`N=C(N)N1CCCC(C[C@H](NC(=O)[C@@H]2CC[C@H]3CN(C(=O)CCc4ccccc4)CC(=O)N32)C(=O)c2nccs2)C1` (some centres undefined) came in with an MOT in the test on Rattus norvegicus of over 60 min. The IC50 against Serine protease 1 [1] stood at 4360 nM; at Prothrombin it was 30 nM.
Take `N=C(N)NCCC[C@H](NC(=O)[C@@H]1CC[C@H]2CN(C(=O)CCc3ccccc3)CC(=O)N21)C(=O)c1nccs1`: the MOT with Rattus norvegicus worked out at 42 min. The compound also displayed an IC50 at Serine protease 1 [1] of under 1 nM.
Regarding `N=C(N)N1CCC([C@@H](NC(=O)[C@@H]2CC[C@H]3CN(C(=O)CCc4ccccc4)CC(=O)N32)C(=O)c2nccs2)CC1`, on Serine protease 1 [2], the inhibition was 31%. Also, at Prothrombin, the midpoint of inhibition, the IC50, lay at 150 nM.
In the case of `N=C(N)N1CCC([C@H](NC(=O)[C@@H]2CC[C@H]3CN(C(=O)CCc4ccccc4)CC(=O)N32)C(=O)c2nccs2)CC1`, the MOT in the test with Rattus norvegicus is listed as 57 min. In addition, the IC50 came to 11900 nM on Serine protease 1 [1] and 1 nM at Prothrombin.

The IC50 is the midpoint of a concentration-inhibition curve. Read a low IC50 as greater potency. The inhibition is the drop in the measured response relative to a control, in per cent. The low end stands for a response near the control, the high end for a response far below the control.

The values above are taken from ChEMBL document CHEMBL1131401, “Potent and selective bicyclic lactam inhibitors of thrombin: Part 2: P1 modifications” (Bioorg Med Chem Lett, 1998).
